# Source: patent US6288110A, “Pharmaceutical compositions comprising disulfiram” (Yeda Research and Development Co Ltd., priority 1998, dated 2001)
# “Also recorded” adds a separate entry of the source.
# Experiments:
# [1] = tested on: endothelial cells; assay: Cell rounding, capillary endothelial cells; type: cell-based, bovine
# Procedure: Capillary endothelial cells were grown during 48 hours to 40-50% confluency and disulfiram was then added to the cells for 20 hours as described in section (g) of "Materials and Methods" above. […] The abundance of apoptotic cells was dose-dependent.
# [2] = tested on: kidney, liver, stomach, lungs and spleen; assay: Pathological and histological examination of tissues of treated animals; type: in vivo, mice
# Procedure: (§1) C6 rat glioma cells (10^6) were injected subcutaneously into the back of the neck of CD1 nude male mice. After 3 days, 1 ml of aqueous solutions with or without 0.1-0.5 mM disulfiram (25-120 μg) was introduced per os to the mice using a feeding needle. Mice were orally fed three times per week. Tumors were removed 30 days following C6 cells injection, weighed, fixed in buffered formalin and histological sections were prepared. Each experimental group included 8 animals, and experiments were repeated twice.
# Since disulfiram inhibits angiogenesis both in vivo in mice and in vitro in C6 glioma cells, it can be assumed that tumor growth inhibition observed for disulfiram is the result of its dual action, one on the neovascularization of the tumor and one on the C6 glioma cells. […] Blood vessels examined in these tissues were also not affected.
# [3] = tested on: C6 rat glioma cells; assay: TUNEL assay for apoptosis, C6 rat glioma cells; type: cell-based; settings: 5 μM, 6 hours
# Procedure: (§2) Cells were cultured on microscope slides for 48 hours in presence of growth media as described above, until reaching 40-50% confluency. Disulfiram was then added to the cells for 6 hours or for 20 hours in the case of BALB/MK keratinocytes, fixed with 4% paraformaldehyde and washed three times with PBS. Apoptosis was analyzed by the in situ TUNEL staining carried out as described (Wride, 1994). Briefly, microscope slides were incubated for 15 min in 2×SSC buffer at 60° C., washed in DDW and incubated with 20 μg/ml proteinase K (Boehringer Mannheim) for 15 min at room temperature. After a wash with DDW, endogenous peroxidases were inactivated by incubating the slides with 2% H2 O2 in PBST (PBS with 0.05% Tween 20) for 10 min at room temperature. Slides were then incubated in TdT buffer (Boehringer Mannheim) for 5 min at room temperature, and a reaction mixture containing 5×TdT buffer and 1 μl biotin-21-dUTP (Clontech, 1 mM stock) and 8 units of the TdT enzyme (Boehringer Mannheim) in total volume of 50 μl was subsequently added. The reactions were carried out at 37° C. for 1.5 hr in a humid chamber. The slides were washed in 2×SSC, DDW and finally with PBS and covered with 10% skim milk in PBST for 15 min. […]
# [4] = tested on: transmammary carcinogenesis; settings: 7,12-dimethylbenz(a)anthracene, mice; cited from earlier work
# [5] = tested on: neoplasia of the forestomach; settings: benzo(a)pyrene, mice; cited from earlier work
# [6] = tested on: BSMC; assay: TUNEL assay for apoptosis, BSMC; type: cell-based, bovine; settings: 1 μM, 6 hours
# Procedure: as §2
# [7] = tested on: C6 rat glioma tumor; assay: Growth of C6 glioma tumors in nude mice; type: in vivo, CD1 nude male mice; C6 rat glioma cells; settings: 30 days; for Tumor weight / % inhibition (tumor growth): per os 3 times per week; for Tumor weight: n=8, mean ± SEM, control 1.37 ± 0.21
# Procedure: as §1
# Tumors from mice fed systemically 3 times a week with disulfiram were weighed 30 days following administration of C6 rat glioma cells to CD1 nude mice. […] Experiments were repeated twice (n=8).
# [8] = cited from earlier work
# [9] = tested on: BALB/MK keratinocytes; assay: TUNEL assay for apoptosis, BALB/MK keratinocytes; type: cell-based, murine; settings: 5 μM
# Procedure: as §2, with “Disulfiram was then added to the cells for 6 hours or for 20 hours in the case of BALB/MK keratinocytes, fixed with 4% paraformaldehyde and washed three times with PBS.” left out, “min. After removal of the skim milk, the sections were incubated with ABC solution from ABC kit (Vector Laboratories, Inc.) for 30 min at room temperature, washed with PBS and stained using AEC procedure (Sigma) The slides were then washed ×3 in DDW and stained with haematoxylin for 30 sec and mounted by Kaiser's glycerol gelatin (Merck).” for “min.”
# [10] = tested on: liver tumors; settings: dimethyl- or diethylnitrosamine, rats; cited from earlier work
smiles,measurement,setting,value
"CCN(CC)C(=S)SSC(=S)N(CC)CC [disulfiram, Bis(diethylthiocarbamoyl) disulfide]",cell rounding,[1],quickly became rounded
same,effect on blood vessels in tissues,[2],not affected
same,pathological effect on tissues,[2],no effect on these tissues
same,apoptosis by TUNEL method,[3],not labeled; also recorded: did not induce
same,inhibition of transmammary carcinogenesis,[4],inhibit transmammary carcinogenesis
same,interference with neoplasia of the forestomach,[5],interfere with induction of cancer
same,apoptosis by TUNEL method,[6],not labeled; also recorded: did not induce
same,Tumor weight,"[7]; 25 μg, p = 0.003",0.59 ± 0.08 g
same,% inhibition (tumor growth),"[7]; 25 μg/mouse, p = 0.003",57%
same,Tumor weight,"[7]; 120 μg, p < 0.05",0.84 ± 0.18 g
same,% inhibition (tumor growth),"[7]; 120 μg/mouse, p < 0.05",38%
same,tumor size compared with water-fed control (in words),"[7]; fed 3 times a week, n=8",significantly smaller
same,solubility in water,[8],soluble in water
same,"solubility in methanol, acetone or chloroform",[8]; hydrophobic solutions,solubilizes better
same,apoptosis by TUNEL method,[9],did not induce
same,interference with induction of liver tumors,[10],interfere with induction of cancer
